Source: publication PMC11157491, “Novel Alaninamide Derivatives with Drug-like Potential for Development as Antiseizure and Antinociceptive Therapies—In Vitro and In Vivo Characterization” (ACS Chemical Neuroscience, 2024)

Tests used:
mice [1] = test: Maximal electroshock (MES) seizure test; type: in vivo; details: Mus musculus, ip
Description: (§1) Identification and profiling of new ASM candidate compounds are still largely based on predictive animal models of seizures/epilepsy, while a range of in silico and in vitro approaches (i.e., molecular modeling or high throughput screening, etc.) are increasingly used in the early stages of ASM discovery.[31] The Epilepsy Therapy Screening Program (ETSP) of the National Institute of Neurological Disorders and Stroke (NIH, Bethesda, MD) has enabled the discovery of several approved ASMs by focusing on the in vivo testing of compounds synthesized by both academic laboratories and industry.[32] The ETSP provides a broad panel of seizure tests (ca. 30 rodent models), but a subset of them is used for the initial screening of new compounds with potential antiseizure activity. The routinely used seizure models include: (i) the MES test, which is an experimental model of tonic–clonic seizures, (ii) the 6 Hz model (32 mA) of focal seizures, and (iii) the scPTZ model of generalized absence or myoclonic seizures.[33],[34] Consequently, in the current studies, all final compounds 21–36 and 45–48 were initially studied in the MES and the 6 Hz (32 mA) seizure models after intraperitoneal (i.p.) administration at a screening dose of 100 mg/kg in mice at a time point of 0.5 h (the screening group consisted of four mice, and the results obtained are summarized in Table S1).
(§2) These parameters were then used to calculate the protective indexes (PIs, PI = TD50/ED50), which describe the therapeutics window of potential drug candidates. The ED50, TD50, and PI values for the tested compounds together with data of their chemical prototypes KA-11 and KJ-5 and reference ASMs are summarized in Table 2.
(§3) The adult male Albino Swiss mice weighed between 22 and 26 g were used in the in vivo studies. They were housed under standardized housing conditions in colony cages and had free access to food as well as tap water. The animals were left to adapt under laboratory conditions for 7 days. All procedures involving animals and their care were performed in accordance with the current European Community and Polish legislation on animal experimentation.
(§4) In the initial screening studies, four mice per group were randomly assigned to each experimental group (each mouse was used only once). To evaluate the ED50 or TD50 values, four groups consisting of eight animals were injected with various doses of tested compounds. The protective indexes (PIs) for the compounds investigated and reference ASMs were calculated by dividing the TD50 value, as determined in the chimney test, by the respective ED50 value, as determined in the MES, scPTZ, or 6 Hz (32 or 44 mA) tests (PI = TD50/ED50). The PIs are a measure of the potential therapeutic window of the tested agent.
(§5) All substances were suspended in Tween 80 (1% aqueous solution) and administered i.p. as a single injection at a dose of 10 mL/kg. On each day of experimentation, fresh solutions were prepared. The detailed in vivo procedures are described elsewhere: the maximal electroshock seizure test (MES),[60] the subcutaneous pentylenetetrazole seizure test (scPTZ),[61] the 6 Hz psychomotor seizure model (32 and 44 mA),[62] and the chimney test.[63] The reference ASMs were purchased from commercial suppliers: VPA (Sigma-Aldrich, St. Louis, MO), LCS, and LEV (UCB Pharma, Braine l’Alleud, Belgium).

mice [2] = test: 6 Hz (32 mA) psychomotor seizure model; type: in vivo; details: Mus musculus, ip; for responders at 100 mg/kg: 100 mg/kg i.p., 0.5 h
Description: as §1, §2, §3, §4, §5

mice [3] = test: Subcutaneous pentylenetetrazole (scPTZ) seizure test; type: in vivo; details: 100 mg/kg i.p.
Description: as §2, §4, §5

TRPV1 (VR1) (h) = molecular target: T1, TRPV1 (VR1) (h) (Homo sapiens, UniProt Q8NER1); test: TRPV1 antagonist effect functional assay; type: cell-based; details: 10 μM, human recombinant CHO cells; read-out: % inhibition of control agonist response
T1 construct: Eurofins (contract assay)
T1 sequence (Q8NER1 whole entry): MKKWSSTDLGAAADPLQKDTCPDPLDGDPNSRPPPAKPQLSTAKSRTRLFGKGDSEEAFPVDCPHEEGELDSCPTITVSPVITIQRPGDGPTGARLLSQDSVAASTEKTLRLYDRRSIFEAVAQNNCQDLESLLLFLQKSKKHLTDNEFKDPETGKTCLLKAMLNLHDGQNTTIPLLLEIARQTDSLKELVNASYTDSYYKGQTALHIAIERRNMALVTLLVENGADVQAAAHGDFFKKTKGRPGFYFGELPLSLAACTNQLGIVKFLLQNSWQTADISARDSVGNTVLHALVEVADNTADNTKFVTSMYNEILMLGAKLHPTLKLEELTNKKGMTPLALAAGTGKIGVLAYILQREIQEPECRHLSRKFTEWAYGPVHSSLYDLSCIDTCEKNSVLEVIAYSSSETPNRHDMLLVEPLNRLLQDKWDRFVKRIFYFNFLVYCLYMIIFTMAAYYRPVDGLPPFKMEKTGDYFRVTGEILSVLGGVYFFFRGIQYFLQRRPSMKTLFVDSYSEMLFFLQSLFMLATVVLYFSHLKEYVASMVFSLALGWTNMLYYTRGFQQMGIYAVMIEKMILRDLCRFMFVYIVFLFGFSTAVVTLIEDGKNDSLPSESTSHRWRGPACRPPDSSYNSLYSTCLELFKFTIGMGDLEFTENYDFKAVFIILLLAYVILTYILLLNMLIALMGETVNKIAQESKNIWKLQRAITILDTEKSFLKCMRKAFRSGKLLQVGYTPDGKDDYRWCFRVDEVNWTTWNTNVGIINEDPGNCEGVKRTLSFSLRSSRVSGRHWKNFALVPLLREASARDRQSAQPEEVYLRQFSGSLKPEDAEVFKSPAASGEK
Procedure: For many years, the TRPV1 channel, permeable to calcium and sodium ions, has been recognized as a promising molecular target for novel analgesics.[19] […] Therefore, bearing in mind the involvement of TRPV1 in pain sensation and potentially in seizure induction, in the next step of the in vitro studies, the TRPV1 antagonist activity was determined for all compounds obtained (Table 6).
Binding/functional studies were carried out commercially in Eurofins Laboratories (Poitiers, France) and Eurofins Panlabs Discovery Services Taiwan, Ltd. (New Taipei City, Taiwan) using testing procedures that were reported previously (for details, see Table S2).
Table S2. Radioligand binding and functional assays. […]
TRPV1 (VR1) (h) (antagonist effect) […]
Assays were performed commercially in Eurofins Laboratories ( Poitiers, France) or Eurofins Panlabs Discovery Services
Taiwan, Ltd. (New Taipei City, Taiwan).

melting point: 110.9 to 111.7 °C
inhibition at 10 µM (TRPV1 (VR1) (h)): 12%
Compound: CC(=O)NC(C)C(=O)N1CCN(c2cccc(SC(F)(F)F)c2)CC1 (stereo not drawn) [Compound 30, N-(1-oxo-1-(4-(3-((Trifluoromethyl)thio)phenyl)piperazin-1-yl)propan-2-yl)acetamide]
responders at 100 mg/kg (mice [1]; 100 mg/kg i.p., 0.5 h, read-out: MES: number of mice protected/number of mice tested (converted)): 100%
ED50 (mice [1]; mice, pretreatment 0.5 h): 45.3 mg/kg
responders at 100 mg/kg (mice [2]; four mice, read-out: protection in 6 Hz (32 mA) screening): 100%
responders at 100 mg/kg (mice [2]; read-out: 6 Hz (32 mA): number of mice protected/number of mice tested (converted)): 100%
ED50 (mice [2]; mice, pretreatment 0.5 h): 39.1 mg/kg
protection in scPTZ screening (mice [3]): 50%
scPTZ: number of mice protected/number of mice tested (mice [3]; 0.5 h): 2/4
